# Data reported in the supplement of paper PMC10307832.
# Assays:
# Assay in all cases: relative viability (nuclei count vs DMSO), 5 days (fraction); higher = more cells survive
# [1] = compound: CC1(C)CNc2cc(NC(=O)c3cccnc3NCc3ccncc3)ccc21 [Motesanib] + Nc1nc2[nH]cc(CCc3ccc(C(=O)N[C@@H](CCC(=O)O)C(=O)O)cc3)c2c(=O)[nH]1 [Pemetrexed] (partner 0.2 µM)
# How it was run: (§1)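 Nuclei were stained with Hoechst during a one-step fixation (final 0.05% Triton X-100, 1% formaldehyde, 1 ug/ml Hoechst) carried out 5 days after dosing, then counted on 4× images. The cells, lung cancer lines in 1536-well plates, had been dosed by pin tool the day after seeding with one drug alone or a fixed anchor-drug dose plus five library-drug doses (not always all listed) in √10 steps. Relative viability is the nuclei count in treated wells divided by that in vehicle wells, and each value is the median of duplicate plates.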
# [2] = compound: CC1(C)CNc2cc(NC(=O)c3cccnc3NCc3ccncc3)ccc21 [Motesanib] + C[C@]1(O)C[C@@H](c2nc(-c3ccc4ccc(-c5ccccc5)nc4c3)c3c(N)nccn32)C1 [Linsitinib] (partner 1 µM)
# How it was run: as §1
# [3] = compound: C[C@@]1(C(=O)Nc2ccc(F)nc2)CCCN1c1nc(Nc2cc(C3CC3)n[nH]2)c2cccn2n1 + CS(=O)(=O)CCNCc1ccc(-c2ccc3ncnc(Nc4ccc(OCc5cccc(F)c5)c(Cl)c4)c3c2)o1 [Lapatinib] (partner 2 µM)
# How it was run: as §1
# [4] = compound: CC1(C)CNc2cc(NC(=O)c3cccnc3NCc3ccncc3)ccc21 [Motesanib] + Cc1nc(Nc2ncc(C(=O)Nc3c(C)cccc3Cl)s2)cc(N2CCN(CCO)CC2)n1 [Dasatinib] (partner 0.075 µM)
# How it was run: as §1
Cell Line,relative viability ([1]; first compound 0.01 µM),relative viability ([1]; first compound 0.3162 µM),relative viability ([1]; first compound 1 µM),relative viability ([2]; first compound 0.01 µM),relative viability ([2]; first compound 0.03162 µM),relative viability ([2]; first compound 0.1 µM),relative viability ([2]; first compound 0.3162 µM),relative viability ([2]; first compound 1 µM),relative viability ([3]; first compound 0.04 µM),relative viability ([3]; first compound 0.1265 µM),relative viability ([3]; first compound 0.4 µM),relative viability ([3]; first compound 1.265 µM),relative viability ([4]; first compound 0.01 µM),relative viability ([4]; first compound 0.03162 µM),relative viability ([4]; first compound 0.1 µM),relative viability ([4]; first compound 0.3162 µM),relative viability ([4]; first compound 1 µM),relative viability ([1]; first compound 0.03162 µM),relative viability ([1]; first compound 0.1 µM)
NCI-H1648,0.707,0.674,0.547,,,,,,,,,,,,,,,,
SK-MES-1,0.912,0.943,1.02,1.06,1.09,1.1,1.08,1.08,0.477,0.438,0.364,0.448,0.397,0.424,0.373,0.412,0.378,0.953,1.03
HCC-366,0.189,0.147,0.143,0.639,0.589,0.656,0.666,0.79,1.22,0.946,1.07,0.883,0.666,0.553,0.552,0.631,0.808,0.154,0.18
201T,0.307,0.296,0.342,1,1.09,1.03,1.05,1.02,1.05,0.91,0.717,0.862,0.575,0.519,0.559,0.595,0.535,0.326,0.318
HCC-827,0.252,0.277,0.29,0.983,0.916,1,1.05,0.951,0.224,0.214,0.17,0.175,0.308,0.307,0.293,0.274,0.228,0.301,0.271
NCI-H647,0.178,0.143,0.165,1.17,1.12,1.38,1.14,1.14,1.07,1.03,0.84,0.457,0.194,0.169,0.151,0.191,0.221,0.175,0.16
NCI-H2023,0.224,0.217,0.263,0.756,0.695,0.715,0.587,0.643,0.722,0.542,0.259,0.236,0.576,0.476,0.575,0.59,0.662,0.201,0.245
NCI-H520,0.577,0.586,0.643,0.86,1.02,0.911,1.18,0.923,0.98,0.841,0.826,0.875,0.208,0.196,0.21,0.226,0.218,0.594,0.51
RERF-LC-KJ,0.471,0.472,0.527,0.864,0.926,0.857,0.919,0.844,0.793,0.715,0.692,0.696,0.92,0.803,0.806,0.811,0.839,0.502,0.495
A-427,0.963,0.992,0.972,1.06,1.11,1.07,1.22,1.22,1.04,0.934,1.09,1.08,0.606,0.724,0.663,0.721,0.81,0.912,0.963
NCI-H441,0.243,0.259,0.196,0.519,0.545,0.626,0.603,0.875,,,,,0.594,0.627,0.604,0.613,0.642,0.234,0.238
NCI-H1703,,,,0.814,0.656,0.497,0.306,0.162,0.996,0.867,0.898,,,,,,,,
NCI-H1792,0.778,0.785,0.711,0.569,0.492,0.625,0.561,0.492,0.82,0.412,0.546,0.696,,0.749,0.808,0.953,0.767,0.859,0.791
Calu-6,,,,0.971,0.932,0.961,0.955,1.08,1.14,1.08,0.95,0.693,,,,,,,
SK-LU-1,0.961,0.417,0.347,1.14,1.01,1.2,1.1,1.32,0.821,0.861,0.598,0.577,0.189,0.189,0.183,0.198,0.209,0.806,0.547
PC-3 [JPC-3],1.02,1.03,0.974,1.05,0.969,0.946,1.04,0.944,0.457,0.403,0.382,0.398,0.845,0.989,0.974,1.04,0.974,1.04,1.04
EMC-BAC-2,0.412,0.412,0.524,0.828,0.805,0.827,0.817,0.86,0.856,0.671,0.572,0.622,0.292,0.34,0.342,0.339,0.303,0.408,0.471
LK-2,0.234,0.256,0.171,0.426,0.44,0.369,0.623,0.582,,1.16,0.584,0.713,0.322,0.212,,0.379,0.245,0.288,0.208
NCI-H2126,0.683,0.695,0.655,0.736,0.73,0.719,0.74,0.701,0.693,0.454,0.376,0.399,0.598,0.541,0.597,0.545,0.635,0.715,0.615
